Experimental findings from patent publication US8962608B2, “Cycloalkylnitrile pyrazole carboxamides as janus kinase inhibitors” (Merck Sharp & Dohme Corp., priority 2011, dated 2015) are described below.

Structures are written as SMILES. pIC50: −log10 of the molar value.

The target of this test is JAK1 (recombinant purified GST-tagged catalytic domain) (Homo sapiens (Human), UniProt P23458). Briefly: biochemical.

The term pIC50 denotes the IC50 on a negative log10 scale, so that one unit is a factor of ten.
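Further: biochemical assay with HTRF read-out.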

Chain of JAK1 (recombinant purified GST-tagged catalytic domain) (P23458 875-1153): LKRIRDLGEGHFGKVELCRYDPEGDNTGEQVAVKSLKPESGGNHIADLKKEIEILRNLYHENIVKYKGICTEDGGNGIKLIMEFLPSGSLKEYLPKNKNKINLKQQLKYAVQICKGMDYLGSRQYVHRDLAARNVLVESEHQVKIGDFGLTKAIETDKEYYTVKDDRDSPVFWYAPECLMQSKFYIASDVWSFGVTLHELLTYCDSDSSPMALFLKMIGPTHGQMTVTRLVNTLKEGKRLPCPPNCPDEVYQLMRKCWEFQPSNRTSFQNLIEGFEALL

Regarding `N#C[C@H]1C[C@@H](N2CC3(CCC3)C2)CC[C@@H]1n1cc(C(N)=O)c(Nc2ccc(C(F)(F)F)cc2)n1` (single isomer, unassigned) [Example 28-17, 1-[(1S,2S,4S or 1R,2R,4R)-4-(2-azaspiro[3.3]hept-2-yl)-2-cyanocyclohexyl]-3-{[4-(trifluoromethyl)phenyl]amino}-1H-pyrazole-4-carboxamide], the pIC50 is 8.70.
On to `C[C@](O)(c1ccc(Nc2nn([C@H]3CCCC[C@@H]3C#N)cc2C(N)=O)cn1)C(F)(F)F` (single isomer, unassigned) [Example 17-34, 1-[(1S,2S or 1R,2R)-2-cyanocyclohexyl]-3-({6-[(1S or 1R)-2,2,2-trifluoro-1-hydroxy-1-methylethyl]pyridin-3-yl}amino)-1H-pyrazole-4-carboxamide], for which the pIC50 was 8.70.
As for `N#C[C@H]1C[C@H](NCC(F)(F)F)CC[C@@H]1n1cc(C(N)=O)c(Nc2ccc(Cl)cc2)n1` (single isomer, unassigned) [Example 28-225, 3-[(4-chlorophenyl)amino]-1-{(1S,2S,4R or 1R,2R,4S)-2-cyano-4-[(2,2,2-trifluoroethyl)amino]cyclohexyl}-1H-pyrazole-4-carboxamide], the figure is 7.92.
As to `COC(=O)c1ccc(Nc2nn([C@H]3CCCC[C@@H]3C#N)cc2C(N)=O)cn1` (single isomer, unassigned) [Example 17-70, methyl 5-({4-carbamoyl-1-[(1R,2R or 1S,2S)-2-cyanocyclohexyl]-1H-pyrazol-3-yl}amino)pyridine-2-carboxylate], the pIC50 is 8.52.
As for `C[C@@H]1C[C@@H](C)N1[C@@H]1CC[C@H](n2cc(C(N)=O)c(Nc3ccc(C(F)(F)F)cc3)n2)[C@@H](C#N)C1` (single isomer, unassigned) [Example 28-30, 1-{(1S,2S,4R or 1R,2R,4S)-2-cyano-4-[(2R,4R or 2S,4S)-2,4-dimethylazetidin-1-yl]cyclohexyl}-3-{[4-(trifluoromethyl)phenyl]amino}-1H-pyrazole-4-carboxamide], the figure is 7.82.
The value for `N#C[C@H]1CCCC[C@@H]1n1cc(C(N)=O)c(Nc2ccc([C@H](O)C(F)(F)F)nc2)n1` (single isomer, unassigned) [Example 17-50, 1-[(1S,2S or 1R,2R)-2-cyanocyclohexyl]-3-({6-[(1S or 1R)-2,2,2-trifluoro-1-hydroxyethyl]pyridin-3-yl}amino)-1H-pyrazole-4-carboxamide] was 9.70; that for `C[C@H]1C[C@H](C)N1[C@H]1CC[C@H](n2cc(C(N)=O)c(Nc3ccc(C(F)(F)F)cc3)n2)[C@@H](C#N)C1` (single isomer, unassigned) [Example 28-21, 1-{(1S,2S,4S or 1R,2R,4R)-2-cyano-4-[(2S,4S or 2R,4R)-2,4-dimethylazetidin-1-yl]cyclohexyl}-3-{[4-(trifluoromethyl)phenyl]amino}-1H-pyrazole-4-carboxamide] was 8.52.
Turning to `C[C@@]1(O)CC[C@H](n2cc(C(N)=O)c(Nc3ccc(Cl)cc3)n2)[C@@H](C#N)C1` (single isomer, unassigned) [Example 32-13, 3-[(4-chlorophenyl)amino]-1-[(1S,2S,4R or 1R,2R,4S)-2-cyano-4-hydroxy-4-methylcyclohexyl]-1H-pyrazole-4-carboxamide], the pIC50 was 8.52.
For `CN(CCC(F)(F)F)[C@@H]1CC[C@H](n2cc(C(N)=O)c(Nc3ccc(S(=O)(=O)C(F)(F)F)cc3)n2)[C@@H](C#N)C1` (single isomer, unassigned) [Example 28-170, 1-{(1S,2S,4R or 1R,2R,4S)-2-cyano-4-[methyl(3,3,3-trifluoropropyl)amino]cyclohexyl}-3-({4-[(trifluoromethyl)sulfonyl]phen-yl]amino)-1H-pyrazole-4-carboxamide], the pIC50 is 7.96.
As for `N#C[C@H]1CCCC[C@@H]1n1cc(C(N)=O)c(Nc2cc(F)cc(Cl)c2)n1` (single isomer, unassigned) [Example 17-51, 3-[(3-chloro-5-fluorophenyl)amino]-1-[(1S,2S or 1R,2R)-2-cyanocyclohexyl]-1H-pyrazole-4-carboxamide], the figure is 8.15; as for `N#C[C@H]1C[C@@H](N2CCC2)CC[C@@H]1n1cc(C(N)=O)c(Nc2ccc(OC(F)F)cc2)n1` (single isomer, unassigned) [Example 28-118, 1-[(1S,2S,4S or 1R,2R,4R)-4-azetidin-1-yl-2-cyanocyclohexyl]-3-{[4-(difluoromethoxy)phenyl]amino}-1H-pyrazole-4-carboxamide], 9.30.
`N#C[C@H]1C[C@@H](NCC(F)(F)F)CC[C@@H]1n1cc(C(N)=O)c(Nc2ccc(Cl)cc2)n1` (single isomer, unassigned) [Example 28-224, 3-[(4-chlorophenyl)amino]-1-{(1S,2S,4S or 1R,2R,4R)-2-cyano-4-[(2,2,2-trifluoroethyl)amino]cyclo-hexyl}-1H-pyrazole-4-carboxamide]: the pIC50 was 8.52.
The value for `N#C[C@H]1C[C@@H](C(=O)N2CC(F)(F)C2)CC[C@@H]1n1cc(C(N)=O)c(Nc2ccc(Cl)cc2)n1` (single isomer, unassigned) [Example 35-6, 3-[(4-chlorophenyl)amino]-1-{(1S,2S,4S or 1R,2R,4R)-2-cyano-4-[(3,3-difluoroazetidin-1-yl)carbonyl]cyclohexyl}-1H-pyrazole-4-carboxamide] was 7.21; that for `COCC(C)N[C@H]1CCC(n2cc(C(N)=O)c(Nc3ccc(Cl)cc3)n2)[C@@H](C#N)C1` (single isomer, unassigned) [Example 28-237, 3-[(4-chlorophenyl)amino]-1-[(1S,2S,4S or 1R,2R,4R)-2-cyano-4-{[(1S)-2-methoxy-1-methylethyl]amino}cyclohexyl]-1H-pyrazole-4-carboxamide] was 9.00; that for `CC(C)(C)NC(=O)c1cncc(Nc2nn([C@H]3CCCC[C@@H]3C#N)cc2C(N)=O)c1` (single isomer, unassigned) [Example 17-71, N-tert-butyl-5-({4-carbamoyl-1-[(1R,2R or 1S,2S)-2-cyanocyclohexyl]-1H-pyrazol-3-yl}amino)pyridine-3-carboxamide] was 7.22.
Take `CC(C)NC(=O)O[C@@H]1CCC(n2cc(C(N)=O)c(Nc3ccc(F)cc3)n2)[C@@H](C#N)C1` (mixture of isomers) [Example 34-4, (1R,3S,4S and 1S,3R,4R)-4-{4-carbamoyl-3-[(4-fluorophenyl)amino]-1H-pyrazol-1-yl}-3-cyanocyclohexyl propan-2-ylcarbamate]: the negative-log IC50 (pIC50) is 8.70.
The value for `N#C[C@H]1C[C@@H](N2CC(O)(C(F)(F)F)C2)CCC1n1cc(C(N)=O)c(Nc2ccc(Cl)cc2)n1` (single isomer, unassigned) [Example 28-213, 3-[(4-chlorophenyl)amino]-1-{(1S,2S,4S or 1R,2R,4R)-2-cyano-4-[3-hydroxy-3-(trifluoromethyl)azetidin-1-yl]cyclohexyl}-1H-pyrazole-4-carboxamide] was 9.00; that for `N#C[C@H]1CC(NC2COC2)CC[C@@H]1n1cc(C(N)=O)c(Nc2ccc(S(=O)(=O)C(F)(F)F)cc2)n1` (single isomer, unassigned) [Example 28-155, 1-[(1S,2S or 1R,2R)-2-cyano-4-(oxetan-3-ylamino)cyclohexyl]-3-({4-[(trifluoromethyl)sulfonyl]phen-yl}amino)-1H-pyrazole-4-carboxamide] was 9.66.
The value for `CN(C)[C@@H]1CCC(n2cc(C(N)=O)c(Nc3ccc(S(=O)(=O)C(F)(F)F)cc3)n2)[C@@H](C#N)C1` (mixture of isomers) [Example 27-7, 1-[(1S,2S,4R and 1R,2R,4S)-2-cyano-4-(dimethylamino)cyclohexyl]-3-({4-[(trifluoromethyl)sulfonyl]phenyl}amino)-1H-pyrazole-4-carboxamide] was 9.40; that for `CC(C)CN(CC1CC1)[C@H]1CC[C@@H](n2cc(C(N)=O)c(Nc3ccc(C(F)(F)F)cc3)n2)[C@H](C#N)C1` (single isomer, unassigned) [Example 30-9, l-{(1R,2R,4S or 1S,2S,4R)-2-cyano-4-[(cyclopropylmethyl)(2-methylpropyl)amino]cyclo-hexyl}-3-{[4-(trifluoromethyl)phenyl]amino}-1H-pyrazole-4-carboxamide] was 7.80; that for `CC1(N[C@@H]2CCC(n3cc(C(N)=O)c(Nc4ccc(Cl)cc4)n3)[C@@H](C#N)C2)CC1` (single isomer, unassigned) [Example 28-206, 3-[(4-chlorophenyl)amino]-1-{(1S,2S,4R or 1R,2R,4S)-2-cyano-4-[(1-methylcyclopropyl)amino]cyclo-hexyl}-1H-pyrazole-4-carboxamide] was 7.92.
Turning to `CN(C)[C@H]1CC[C@H](n2cc(C(N)=O)c(Nc3ccc(F)cc3)n2)[C@@H](C#N)C1` (single isomer, unassigned) [Example 28-94, 1-[(1S,2S,4S or 1R,2R,4S)-2-cyano-4-(dimethylamino)cyclohexyl]-3-[(4-fluorophenyl)amino]-1H-pyrazole-4-carboxamide], the pIC50 was 8.70.
In the case of `N#C[C@H]1C[C@H](O)CCC1n1cc(C(N)=O)c(Nc2ccnc(F)c2)n1` (single isomer, unassigned) [Example 25-21, 1-[(1S,2S,4R or 1R,2R,4S)-2-cyano-4-hydroxycyclohexyl]-3-[(2-fluoropyridin-4-yl)amino]-1H-pyrazole-4-carboxamide], the negative logarithm of the IC50 (pIC50) was 9.00.
For the compound `CN([C@H]1CCC(n2cc(C(N)=O)c(Nc3ccc(Cl)cc3)n2)[C@@H](C#N)C1)C(C)(C)C1CC1` (single isomer, unassigned) [Example 28-229, 3-[(4-chlorophenyl)amino]-1-{(1S,2S,4S or 1R,2R,4R)-2-cyano-4-[(1-cyclopropyl-1-methylethyl)(methyl)amino]cyclo-hexyl}-1H-pyrazole-4-carboxamide], the negative-log IC50 (pIC50) is 9.00.
As to `CC(C)(C)OC(=O)[C@H]1CCC(n2cc(C(N)=O)c(Nc3ccc(F)cc3)n2)[C@@H](C#N)C1` (mixture of isomers) [Example 7-1, tert-Butyl (1S,3S,4S and 1R,3R,4R)-4-{4-carbamoyl-3-[(4-fluorophenyl)amino]-1H-pyrazol-1-yl}-3-cyanocyclohexanecarboxylate], the pIC50 is 7.77.
